Laboratory results from patent US20060193777A1, “Method of screening compounds for potential efficacy for the treatment of signs of aging” (priority 2005, published 2006).

How the values were obtained:
Human keratinocytes [1] = assay: Electric Cell-Substrate Impedance Sensing (ECIS) capacitance contraction of human keratinocytes; type: cell-based; settings: for Electrical Capacitance Contraction of Human Keratinocytes (AUC of capacitance, Mean ± Std Dev): integrated over 5 hrs, 40,000 Hz, pH 7.2-7.3; for contraction or shrinkage of keratinocyte cell area as measured by keratinocyte capacitance (in words): compared to media treatment alone
Text: Electrical changes due to the presence of a cell layer can be used to calculate cell morphological parameters including the barrier function of the cell layer (the spacing between the ventral side of the cell and the substratum) and the cell membrane capacitance (Giaever and Keese, Proceedings of National Academy of Sciences 88, 7896, 1991).
Current flowing between a reference electrode, onto which cells or cell cultures may be attached, and a larger counter electrode using normal culture medium as the electrolyte can be used to detect changes in cell morphological parameters. In the absence of cells on the electrode, the current flows unrestrained from the surface of the electrodes. In the presence of cells attached and spread upon the electrode, the current must now flow in the spaces under and between the cells, as the cell membrane act as insulators.
The electrical changes of living, viable cells can be sampled rapidly, in real time, over an extended period of time, and the measurements are the measurement is non-invasive. An example of this technology is the Electric Cell-substrate Impedance Sensing System (ECIS) available from Applied Biophysics (Troy, N.Y.). Electrical changes in keratinocyte morphological parameters can be used to identify novel compounds for anti-aging benefits.
Human keratinocytes and Epilife culture media (Cascade Biologics, Portland, Oreg.) were cultured at 37° C. in a humidified atmospheres of 5% CO2/95% air. Electric Cell-substrate Impedance Sensing System (ECIS) electrode arrays (Applied Biophysics , Troy, N.Y.) were coated with 0.01 mg/ml Laminin V (Sigma Aldirch, St Louis, Mo.) in sterile Phosphate Buffered Saline (Gibco Life Sciences, San Diego, Calif.). Human keratinocytes were prepared at a density of 0.125×10^6 cells/mL in Epilife culture media. Human keratinocytes were plated at 5.0×10^4 cells/electrode well and cultured at 37° C. in a humidified atmospheres of 5% CO2/95% O2 for 24-48 hrs. Capacitance changes (in nanofarads, nF) of keratinocytes were measured using a Electric Cell-substrate Impedance Sensing System (ECIS) Model 1600R (Applied Biophysics, Troy, N.Y.) using the method of Wegener and co-workers (Wegener J, Keese C R, Giaever I, Exp Cell Res. 259:158-166, 2000) at a frequency of 40,000 Hz. Capacitance readings are inversely related to the contact area of a cell onto the ECIS electrode array, the greater the cell area contacting the electrode the smaller the capacitance readings (Wegener J, Keese C R, Giaever I, Exp Cell Res. 259:158-166, 2000). Conversely as a cell contracts or shrinks, the contact area of the cell onto the ECIS electrode array decreases, resulting in an increase in the capacitance readings. […] These calculations are based on the trapezoid theorem. The AUC of the media curve was subtracted from the compound treated group. A positive AUC difference indicates keratinocyte contraction, the greater the AUC difference the greater the amount of keratinocyte contraction. […] DMAE is a known skin-firming agent. The compounds were diluted into Hank's Buffered Salt Solution (HBSS; Gibco Life Sciences, San Diego, Calif.) and the pH of the solution adjusted to between pH 7.2-7.3. The pH of the HBSS without compounds (“Media Alone”) was also adjusted to pH 7.2-7.3.

Human keratinocytes [2] = assay: Visual contraction of human keratinocytes by real time visual microscopy (cell area); type: cell-based
Experimental: Human keratinocytes and Epilife culture media (Cascade Biologics, Portland, Oreg.) were cultured at 37° C. in a humidified atmospheres of 5% CO2/95% air. Glass Cover Slides (Applied Biophysics, Troy, N.Y.) were coated with 0.01 mg/ml Laminin V (Sigma Aldirch, St Louis, Mo.) in sterile Phosphate Buffered Saline (Gibco Life Sciences, San Diego, Calif.). Human keratinocytes were prepared at a density of 0.125×10^6 cells/mL in Epilife culture media. Human keratinocytes were plated at 3.75×10^4 cells/well on a 6 well plate containing Laminin coated coverslips and cultured at 37° C. in a humidified atmospheres of 5% CO2/95% O2 for 48 hrs. Individual coverslips were transferred to a open bath imaging chamber (Warner Instruments, Hamden, Conn.) mounted on a Leica inverted microscope (Leitz DM1L) with an attached CCD camera. Cells were perfused with Hank's Buffered Salt Solution (HBSS; Gibco Life Sciences, San Diego, Calif.) at flow rate of 1 ml/min using a peristaltic pump (Cole Parmer, Vernon Hills, Ill.). […] The pH of the HBSS without DMAE or THPED. (“Media Alone”) was also adjusted to pH 7.2-7.3. […] Cell area was determined using Scion Image software (Version 4.0.2), and reductions in cell area were reported as the ratio of cell area after treatment to cell area prior to treatment

Human keratinocytes [3] = assay: Reversal of visual contraction of human keratinocytes after removal of DMAE; type: cell-based; settings: for Reversal of Visual Contraction of Human Keratinocytes (Mean ± Std Dev): 0.1% DMAE
Experimental: Human keratinocytes and Epilife culture media (Cascade Biologics, Portland, Oreg.) were cultured at 37° C. in a humidified atmospheres of 5% CO2/95% air. Glass Cover Slides (Applied Biophysics, Troy, N.Y.) were coated with 0.01 mg/ml Laminin V (Sigma Aldirch, St Louis, Mo.) in sterile Phosphate Buffered Saline (Gibco Life Sciences, San Diego, Calif.). Human keratinocytes were prepared at a density of 0.125×10^6 cells/mL in Epilife culture media. Human keratinocytes were plated at 3.75×10^4 cells/well on a 6 well plate containing Laminin coated coverslips and cultured at 37° C. in a humidified atmospheres of 5% CO2/95% O2 for 48 hrs. Individual coverslips were transferred to a open bath imaging chamber (Warner Instruments, Hamden, Conn.) mounted on a Leica inverted microscope (Leitz DM1L) with an attached CCD camera. Cells were perfused with Hank's Buffered Salt Solution (HBSS; Gibco Life Sciences, San Diego, Calif.) at flow rate of 1 ml/min using a peristaltic pump (Cole Parmer, Vernon Hills, Ill.). […] The pH of the HBSS without DMAE or THPED. (“Media Alone”) was also adjusted to pH 7.2-7.3. […] Images were collected of a field of keratinocytes containing 10-20 cells at 0, 10 and 20 minutes of treatment using ImagePro software. Cell area was determined using Scion Image software (Version 4.0.2), and reductions in cell area were reported as the ratio of cell area after treatment to cell area prior to treatment
In the following example, keratinocytes were prepared and plated on coverslips as described above.

[4] = tested on: granular cells in the viable epidermis; assay: Confocal reflectance microscopy of upper inner arm skin, cell size decrease after product application; type: in vivo, human; settings: two microliters/cm^2, imaged over 20 minutes, eight volunteers, gel with 3% DMAE
Experimental: A study was conducted using a VivaScope 1000 Confocal Reflectance Microscope from Lucid (Rochester, N.Y.) and a water immersion objective of NA 1.2-0.7 (60×). Sites on the upper inner arm were imaged immediately after product application (two microliters/cm^2 was applied) and every 2 minutes for an interval of 20 minutes. […] The confocal microscope was set up to acquire 16 frames from the top of the stratum corneum in steps of 3 micrometers, allowing observation of changes in cell size/morphology within a 48 micrometer depth region. As described by Rajadhyaksha et al., J. Invest. Dermatol. 113(3):293-303 (1999), the size of the cells varies (in diameter) with skin depth from 25-30 micromerters in the granular cells to 15-25 micrometers in spinous cells layers. In this study, cells were observed approximately 21 micrometers from the top of the stratum corneum, primarily granular cells, or at the top of the spinous cells. The exact same cells were compared in the initial maps and in the final maps in order to avoid any interference of cell size differences with the depth as described by Rajadhyaksha et al. After image acquisition, we used an enhancement routine developed in IDL® Software (Research System Inc., Boulder, Colo.) and the cells size area were measured using Image Pro Plus® (Media Cybernetics Inc., Silver Springs, Md.). […]

Row | Structure (SMILES) | Electrical Capacitance Contraction of Human Keratinocytes (AUC of capacitance, Mean ± Std Dev) (Human keratinocytes [1]; 0.01% V/V) | Electrical Capacitance Contraction of Human Keratinocytes (AUC of capacitance, Mean ± Std Dev) (Human keratinocytes [1]; 0.05% V/V) | Electrical Capacitance Contraction of Human Keratinocytes (AUC of capacitance, Mean ± Std Dev) (Human keratinocytes [1]; 0.1% V/V) | contraction or shrinkage of keratinocyte cell area as measured by keratinocyte capacitance (in words) (Human keratinocytes [1]) | contraction or shrinkage of keratinocyte cell area as determined by keratinocyte surface area (in words) (Human keratinocytes [2]) | Visual Contraction of Human Keratinocytes (reduction in cell area, Mean ± Std Dev) (Human keratinocytes [2]; 0.1%, 2 Min) | Visual Contraction of Human Keratinocytes (reduction in cell area, Mean ± Std Dev) (Human keratinocytes [2]; 0.1%, 10 Min) | Visual Contraction of Human Keratinocytes (reduction in cell area, Mean ± Std Dev) (Human keratinocytes [2]; 0.1%, 20 Min) | Visual Contraction of Human Keratinocytes (reduction in cell area, Mean ± Std Dev) (Human keratinocytes [2]; 0.01%, 10 Min) | Visual Contraction of Human Keratinocytes (reduction in cell area, Mean ± Std Dev) (Human keratinocytes [2]; 0.01%, 20 Min) | Visual Contraction of Human Keratinocytes (reduction in cell area, Mean ± Std Dev) (Human keratinocytes [2]; 0.05%, 10 Min) | Visual Contraction of Human Keratinocytes (reduction in cell area, Mean ± Std Dev) (Human keratinocytes [2]; 0.05%, 20 Min) | Reversal of Visual Contraction of Human Keratinocytes (Mean ± Std Dev) (Human keratinocytes [3]; 20 Min Treatment with DMAE) | Reversal of Visual Contraction of Human Keratinocytes (Mean ± Std Dev) (Human keratinocytes [3]; 30 Min After Removal of DMAE) | Reversal of Visual Contraction of Human Keratinocytes (Mean ± Std Dev) (Human keratinocytes [3]; 60 Min After Removal of DMAE) | reversibility of keratinocyte contraction (in words) (Human keratinocytes [3]; after removal of DMAE) | Percentage of Decreases in Cell Size [4]
1 | CC(O)CN(CCN(CC(C)O)CC(C)O)CC(C)O (stereo not drawn) [THPED, N,N,N′,N′-Tetrakis(2-hydroxypropyl)ethylenediamine] | 29.2 ± 3.2 | 35.1 ± 5.3 | 44.5 ± 9.1 | dose-dependent contraction or shrinkage | dose-dependent contraction or shrinkage | 32.9% ± 11.3% | 37.9% ± 10.7% | 47.3% ± 12.7% | – | – | – | – | – | – | – | – | –
2 | CN(C)CCO [DMAE, 2-(dimethylamino)ethanol] | 22.82 ± 4.1 | 28.8 ± 5.6 | 36.1 ± 5.9 | dose-dependent contraction or shrinkage | dose-dependent contraction or shrinkage | – | 23.61% ± 3.03% | 33.83% ± 2.96% | 4.82% ± 0.68% | 6.22% ± 0.95% | 16.40% ± 2.58% | 18.04% ± 3.09% | 32.17% ± 2.65% | 24.25% ± 3.23% | 16.546% ± 3.89% | reversal of the DMAE-induced keratinocyte contraction | 15%
